Experimental data from patent US9440969B2, “Compounds and methods for kinase modulation, and indications therefor” (PLEXXIKON INC., priority 2009, dated 2016).

What was measured:
CYP2D6 = CYP2D6 (Homo sapiens, UniProt P10635); experiment: CYP2D6 inhibition (fluorescent substrate AMMC); type: in vitro ADME; conditions: read-out: Cyp IC50 (μM) 2D6
Description: (§1) CYP (Cytochrome P450) enzymes are the major drug metabolizing enzymes present in the liver. The inhibition of CYP enzyme activity (IC50) for each of CYP1A2, CYP2C19, CYP2C9, CYP2D6, CYP3A4(BFC) and CYP3A4(BQ) is determined for compounds, where inhibition of metabolism of a known substrate leads to a decrease in the fluorescence of the metabolized product. The fluorescence of the product is monitored as a function of compound concentration. Compounds are dissolved in dimethyl sulfoxide to a concentration of 100 mM. These are diluted […], into 82 μL of acetonitrile. An 11 μL aliquot of this solution is then added to 204 μL of cofactor mix (1.3% NADPH Regeneration system Solution A, 1.04% NADPH Regeneration system Solution B from BD Biosciences, 5% acetonitrile and 0.05% dimethyl sulfoxide). These are then serially diluted 1:1 (160 μL to 160 μL co-factor mix) for a total of 10 points. A 10 μL aliquot of this final mixture is dispensed into 384 well assay plates and incubated for 10 minutes at 37° C. Enzyme and substrate mix (10 μL; 0.5 pmol CYP1A2/5 μM CEC; 1.0 pmol CYP2C9/75 μM MFC; 0.5 pmol CYP2C19/25 μM CEC; 1.5 pmol CYP2D6/1.5 μM AMMC; 1.0 pmol CYP3A4/50 μM BFC; or 1.0 pmol CYP3A4/40 μM BQ) is added to these assay plates. Assay plates are incubated at 37° C. (CYP1A2-15 min; CYP2C9-45 min; CYP2C19, 2D6 and 3A4-30 min) and read in a Tecan Safire 2 plate reader (CYP1A2, 2C19 and 3A4 409 ex/460 em; CYP2C9 and 2D6 409 ex/530 em). The signal versus compound concentration is used to determine the IC50. The enzymes and substrates for this assay are obtained from BD Biosciences.

CYP2C9 = CYP2C9 (Homo sapiens, UniProt P11712); experiment: CYP2C9 inhibition (fluorescent substrate MFC); type: in vitro ADME; conditions: read-out: Cyp IC50 (μM) 2C9
Sequence of CYP2C9 (P11712 whole entry): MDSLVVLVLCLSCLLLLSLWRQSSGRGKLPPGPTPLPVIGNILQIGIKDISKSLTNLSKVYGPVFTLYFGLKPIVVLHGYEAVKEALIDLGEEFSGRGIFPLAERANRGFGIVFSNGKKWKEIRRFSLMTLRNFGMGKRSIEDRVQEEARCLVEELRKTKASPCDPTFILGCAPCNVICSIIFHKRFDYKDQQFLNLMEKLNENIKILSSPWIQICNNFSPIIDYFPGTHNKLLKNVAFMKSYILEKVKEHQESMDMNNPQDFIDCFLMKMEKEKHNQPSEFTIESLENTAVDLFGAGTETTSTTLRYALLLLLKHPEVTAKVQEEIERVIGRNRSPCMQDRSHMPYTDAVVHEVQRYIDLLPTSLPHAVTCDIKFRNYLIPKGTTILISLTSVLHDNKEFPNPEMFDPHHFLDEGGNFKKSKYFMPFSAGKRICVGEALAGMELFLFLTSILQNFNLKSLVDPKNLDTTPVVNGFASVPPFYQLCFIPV
Description: as §1

CYP3A4(BQ) = CYP3A4(BQ) (Homo sapiens, UniProt P08684); experiment: CYP3A4 inhibition (substrate BQ); type: in vitro ADME; conditions: read-out: Cyp IC50 (μM) 3A4(BQ)
Sequence of CYP3A4(BQ) (P08684 whole entry): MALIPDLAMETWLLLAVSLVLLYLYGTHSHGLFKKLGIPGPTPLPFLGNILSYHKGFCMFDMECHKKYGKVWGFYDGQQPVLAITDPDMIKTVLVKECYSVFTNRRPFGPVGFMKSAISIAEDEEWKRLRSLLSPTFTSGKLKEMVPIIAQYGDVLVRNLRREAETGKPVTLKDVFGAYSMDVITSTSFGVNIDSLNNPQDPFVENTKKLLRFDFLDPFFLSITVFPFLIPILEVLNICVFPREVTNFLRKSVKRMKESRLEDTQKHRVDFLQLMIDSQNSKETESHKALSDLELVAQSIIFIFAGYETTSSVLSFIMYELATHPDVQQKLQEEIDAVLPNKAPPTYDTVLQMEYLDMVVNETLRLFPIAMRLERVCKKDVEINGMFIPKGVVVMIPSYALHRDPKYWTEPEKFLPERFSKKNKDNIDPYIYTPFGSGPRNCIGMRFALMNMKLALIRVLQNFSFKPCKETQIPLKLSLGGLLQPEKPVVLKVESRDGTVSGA
Description: as §1

CYP2C19 = CYP2C19 (Homo sapiens, UniProt P33261); experiment: CYP2C19 inhibition (fluorescent substrate CEC); type: in vitro ADME; conditions: read-out: Cyp IC50 (μM) 2C19
Sequence of CYP2C19 (P33261 whole entry): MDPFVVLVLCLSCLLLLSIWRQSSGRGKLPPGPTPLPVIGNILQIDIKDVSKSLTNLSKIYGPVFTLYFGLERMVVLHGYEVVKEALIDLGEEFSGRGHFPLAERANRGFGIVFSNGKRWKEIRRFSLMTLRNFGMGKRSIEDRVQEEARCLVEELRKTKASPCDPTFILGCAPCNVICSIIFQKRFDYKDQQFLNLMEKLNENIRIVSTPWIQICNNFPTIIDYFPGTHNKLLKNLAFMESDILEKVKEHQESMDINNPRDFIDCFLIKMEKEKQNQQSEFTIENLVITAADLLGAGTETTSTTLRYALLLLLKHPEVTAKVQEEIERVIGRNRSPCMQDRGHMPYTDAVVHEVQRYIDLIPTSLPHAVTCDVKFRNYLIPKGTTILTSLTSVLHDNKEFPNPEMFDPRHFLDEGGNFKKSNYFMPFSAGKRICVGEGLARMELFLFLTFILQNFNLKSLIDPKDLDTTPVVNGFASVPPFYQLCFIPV
Description: as §1

CYP3A4(BFC) = CYP3A4(BFC) (Homo sapiens, UniProt P08684); experiment: CYP3A4 inhibition (substrate BFC); type: in vitro ADME; conditions: read-out: Cyp IC50 (μM) 3A4(BFC)
Sequence of CYP3A4(BFC) (P08684 whole entry): as the sequence (P08684 whole entry) above
Description: as §1

CYP1A2 = biological target: T1, CYP1A2 (Homo sapiens, UniProt P05177); experiment: CYP1A2 inhibition (fluorescent substrate CEC); type: in vitro ADME; conditions: read-out: Cyp IC50 (μM) 1A2
T1 sequence (P05177 1-516): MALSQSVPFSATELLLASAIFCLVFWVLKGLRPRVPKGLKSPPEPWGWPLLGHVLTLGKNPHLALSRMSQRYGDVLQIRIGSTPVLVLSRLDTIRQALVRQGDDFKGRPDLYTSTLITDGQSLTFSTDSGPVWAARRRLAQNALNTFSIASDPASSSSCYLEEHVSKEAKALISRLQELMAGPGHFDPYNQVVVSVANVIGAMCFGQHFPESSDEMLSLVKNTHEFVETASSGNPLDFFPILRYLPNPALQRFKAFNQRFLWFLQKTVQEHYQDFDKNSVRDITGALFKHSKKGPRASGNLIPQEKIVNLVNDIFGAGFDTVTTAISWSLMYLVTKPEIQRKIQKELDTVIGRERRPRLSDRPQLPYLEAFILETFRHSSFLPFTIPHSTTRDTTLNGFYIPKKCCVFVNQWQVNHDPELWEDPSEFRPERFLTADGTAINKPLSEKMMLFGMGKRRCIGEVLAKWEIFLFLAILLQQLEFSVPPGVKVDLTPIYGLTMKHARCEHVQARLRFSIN
Description: as §1

[1] = Relative solubility by turbidity in aqueous buffers (pH 1.5, 4.5, 6.8, 7.4); type: physicochemical; conditions: for turbidity threshold (L, M, H) 1.4: pH 1.5 buffer (SGF); for turbidity threshold (L, M, H) 4.5: pH 4.5 buffer (SIF); for turbidity threshold (L, M, H) 6.8: pH 6.8 buffer (SIF); for turbidity threshold (L, M, H) 7.4: pH 7.4 buffer (HEPES)
In short: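 2-fold DMSO dilution series from 25 mM stocks were added to SGF (0.5M NaCl, pH 1.5), SIF (0.05M NaH2PO4, pH 4.5/6.8) or HEPES (10 mM, 150 mM NaCl, pH 7.4). Absorbance at 490, 535 and 650 nm; value is the concentration crossing OD 0.01, averaged over wavelengths. Low <31.3 μM, moderate 31.3–250 μM, high >250 μM.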

[2] = system: COLO205 colon adenocarcinoma (B-Raf V600E mutation); experiment: COLO205 cell growth inhibition (ATPlite luminescence); type: cell-based; conditions: Homo sapiens, COLO 205, 72 h, COLO205 cells, incubated 3 days with compound
Description: Compounds are assessed in a variety of cell based assays. For example human cell lines with B-Raf V600E mutation (A375 melanoma, SKMEL3 melanoma, and COLO205 colon adenocarcinoma), as well as tumorigenic cell lines with wild-type B-RAF (SW620 colon adenocarcinoma) or with Ras mutations (SKMEL2 melanoma and IPC298 melanoma). Similar assays may be used to assess additional tumorigenic cell lines with Ras mutations, including, but not limited to, M202, M207, M243, M244, M296, S117, HCT116, HCT15, DLD1, MiaPaCa, A549, NCI-H23, NCI-H460, HOP62, MDA-MB231, Hs-578T, HL60, MOLT-4, and CCRF-CEM.
On day 1, cells are counted, then centrifuged in a conical tube for 5 minutes at 1000 rpm. The supernatant is removed and cells are re-suspended as follows: • SW620 (ATCC catalog #CCL-27): resuspend in Leibovitz's L-15 medium, 2 mM L-glutamine, 10% fetal bovine serum to 6×10^4 cells/mL. • A375 (ATCC catalog #CRL-1619): resuspend in Dulbecco's modified Eagle's medium, 4 mM L-glutamine, 4.5 g/L D-glucose, 10% fetal bovine serum to 6×10^4 cells/mL. • COLO205 (ATCC catalog #CCL-222): resuspend in RPMI 1640, 2 mM L-glutamine, 1.5 g/L sodium bicarbonate, 4.5 g/L D-glucose, 10 mM HEPES, 1.0 mM sodium pyruvate, 10% fetal bovine serum to 6×10^4 cells/mL. • SKMEL2 (ATCC catalog #HTB-68): resuspend in Minimum Eagle essential medium, 2 mM L-glutamine, 1.5 g/L sodium bicarbonate, 0.1 mM non-essential amino acids, 1.0 mM sodium pyruvate, 10% fetal bovine serum to 6×10^4 cells/mL. • SKMEL3 (ATCC catalog #HTB-69): resuspend in McCoy's 5A medium, 1.5 mM L-glutamine, 15% fetal bovine serum to 6×10^4 cells/mL. • IPC298 (DSMZ catalog #ACC 251): resuspend in RPMI 1640, 2 mM L-glutamine, 10% fetal bovine serum to 6×10^4 cells/mL.
The cells are plated, 50 μL in each well of a 96-well dish (Corning 3610) and incubated at 37° C. in 5% CO2 overnight, cells plated to a final concentration of cells as follows:
On day 2, compound at a maximum concentration of 5 mM is serially diluted 1:3 (e.g. 10 μL with 30 μL dimethyl sulfoxide) for a total of 8 point titration with DMSO as a control. A 1 μL aliquot of each dilution point and control is added to 249 μL growth media and 50 μL is added to a well containing cells, providing 10 μM compound at the maximum concentration point. The cells are incubated for 3 days at 37° C. in 5% CO2.
On day 5, ATPlite 1 step Luminescence Assay System (Perkin Elmer #6016739) is brought to room temperature along with the cell cultures. ATPlite is added 25 μL to each well, shake for 2 minutes, and the cells are incubated at room temperature for 10 minutes, then luminescence is read on Safire reader. The measured luminescence correlates directly with cell number, such that the reading as a function of compound concentration is used to determine the IC50 value.
It is understood that the results of these assays may vary as assay conditions are varied. Inhibition levels determined under the conditions described herein represent a relative activity for the compounds tested under the specific conditions employed. The cell based assays are likely to show variability due to the complexity of the system and the sensitivity thereof to any changes in the assay conditions. […] Results for compounds that are tested and show substantially no inhibition below the highest tested concentration are represented as “-” in the tables below. In some instances, the compounds were not tested in all of the assays, or assay results were not valid, as indicated by NA in the tables below.

c-Raf-1 = c-Raf-1 (Homo sapiens, UniProt P04049); experiment: c-Raf-1 kinase activity assay (AlphaScreen, biotin-MEK1 substrate); conditions: 100 μM ATP, 100 nM biotin-MEK1, 45 minutes at room temperature; read-out: Biochemical activity (IC50 μM) c-Raf-1
Sequence of c-Raf-1 (P04049 whole entry Y340D/Y341D, form open): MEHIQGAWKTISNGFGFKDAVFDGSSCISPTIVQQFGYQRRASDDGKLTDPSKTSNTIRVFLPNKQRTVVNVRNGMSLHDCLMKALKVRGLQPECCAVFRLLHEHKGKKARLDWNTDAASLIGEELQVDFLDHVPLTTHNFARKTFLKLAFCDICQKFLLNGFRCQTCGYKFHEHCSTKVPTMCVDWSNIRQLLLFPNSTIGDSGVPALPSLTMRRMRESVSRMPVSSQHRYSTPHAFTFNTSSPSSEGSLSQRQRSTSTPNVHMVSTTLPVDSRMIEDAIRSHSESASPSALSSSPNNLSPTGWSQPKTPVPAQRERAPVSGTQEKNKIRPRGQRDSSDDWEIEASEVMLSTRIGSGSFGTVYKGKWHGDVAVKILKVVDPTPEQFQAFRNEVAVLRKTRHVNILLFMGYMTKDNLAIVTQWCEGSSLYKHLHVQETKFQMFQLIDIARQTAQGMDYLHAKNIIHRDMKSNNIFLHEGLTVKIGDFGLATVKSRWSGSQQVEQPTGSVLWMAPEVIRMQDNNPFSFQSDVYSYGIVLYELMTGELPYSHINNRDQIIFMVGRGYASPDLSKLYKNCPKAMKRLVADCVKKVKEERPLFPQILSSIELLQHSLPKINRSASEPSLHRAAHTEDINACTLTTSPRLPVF
In short: (§2)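 Each Raf enzyme (0.1 ng) phosphorylates 100 nM biotin-MEK1 in pH 7.0 HEPES with Mg2+/Mn2+, 100 μM ATP final, 45 min at room temperature. Phospho-MEK1/2 antibody with AlphaScreen beads is read after 3 h. IC50 comes from an 8-point dilution series.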

B-Raf = B-Raf (Homo sapiens, UniProt P15056); experiment: B-Raf kinase activity assay (AlphaScreen, biotin-MEK1 substrate); conditions: 100 μM ATP, 100 nM biotin-MEK1, 45 minutes at room temperature; read-out: Biochemical activity (IC50 μM) B-Raf
Sequence of B-Raf (P15056 whole entry): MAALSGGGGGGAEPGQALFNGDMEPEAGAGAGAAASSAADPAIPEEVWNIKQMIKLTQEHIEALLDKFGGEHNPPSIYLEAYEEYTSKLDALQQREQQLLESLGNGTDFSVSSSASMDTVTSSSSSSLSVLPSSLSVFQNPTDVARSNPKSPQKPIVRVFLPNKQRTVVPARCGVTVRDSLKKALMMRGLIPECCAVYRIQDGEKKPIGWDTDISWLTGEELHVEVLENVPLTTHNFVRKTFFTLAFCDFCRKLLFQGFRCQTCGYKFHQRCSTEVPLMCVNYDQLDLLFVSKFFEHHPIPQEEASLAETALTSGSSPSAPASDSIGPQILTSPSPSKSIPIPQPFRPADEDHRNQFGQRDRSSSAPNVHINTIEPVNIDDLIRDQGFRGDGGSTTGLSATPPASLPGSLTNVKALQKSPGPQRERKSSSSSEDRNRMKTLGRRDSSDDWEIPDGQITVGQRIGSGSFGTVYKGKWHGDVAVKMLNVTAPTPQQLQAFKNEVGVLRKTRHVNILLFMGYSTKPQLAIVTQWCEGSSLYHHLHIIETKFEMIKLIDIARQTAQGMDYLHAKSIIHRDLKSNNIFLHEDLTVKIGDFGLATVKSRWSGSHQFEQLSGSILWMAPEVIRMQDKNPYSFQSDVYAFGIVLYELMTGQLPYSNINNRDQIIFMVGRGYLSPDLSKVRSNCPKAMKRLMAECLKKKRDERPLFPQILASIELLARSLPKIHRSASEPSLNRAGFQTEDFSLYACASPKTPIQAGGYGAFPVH
In short: as §2

B-Raf V600E = B-Raf V600E (Homo sapiens, UniProt P15056, V600E); experiment: B-Raf V600E kinase activity assay (AlphaScreen, biotin-MEK1 substrate); conditions: 100 μM ATP, 100 nM biotin-MEK1, 45 minutes at room temperature, read-out: Biochemical activity (IC50 μM) V600E
Sequence of B-Raf V600E (P15056 whole entry V600E): as the sequence (P15056 whole entry) above, with V600E counted along it
In short: as §2

Sequence of CYP2D6 (P10635 whole entry): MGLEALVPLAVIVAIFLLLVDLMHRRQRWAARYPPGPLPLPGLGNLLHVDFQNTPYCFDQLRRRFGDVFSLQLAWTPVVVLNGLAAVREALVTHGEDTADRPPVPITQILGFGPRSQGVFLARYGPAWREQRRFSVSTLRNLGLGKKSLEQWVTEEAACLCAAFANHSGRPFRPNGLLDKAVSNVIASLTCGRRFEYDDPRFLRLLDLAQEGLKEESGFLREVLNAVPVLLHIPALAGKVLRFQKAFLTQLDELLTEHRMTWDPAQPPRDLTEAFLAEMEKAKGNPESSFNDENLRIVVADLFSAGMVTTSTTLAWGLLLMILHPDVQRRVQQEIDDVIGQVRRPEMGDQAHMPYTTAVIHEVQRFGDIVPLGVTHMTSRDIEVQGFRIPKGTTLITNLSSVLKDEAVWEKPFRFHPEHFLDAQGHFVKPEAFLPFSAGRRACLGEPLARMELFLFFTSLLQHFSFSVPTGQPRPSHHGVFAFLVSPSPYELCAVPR

| IC50 (CYP2D6) [µM] | IC50 (CYP2C9) [µM] | IC50 (CYP3A4(BQ)) [µM] | IC50 (CYP2C19) [µM] | IC50 (CYP3A4(BFC)) [µM] | IC50 (CYP1A2) [µM] | IC50 [2] [µM] | IC50 (c-Raf-1) [µM] | IC50 (B-Raf) [µM] | IC50 (B-Raf V600E) [µM] | Structure (SMILES) | turbidity threshold (L, M, H) 1.4 [1] | turbidity threshold (L, M, H) 4.5 [1] | turbidity threshold (L, M, H) 6.8 [1] | turbidity threshold (L, M, H) 7.4 [1] |
| --- | --- | --- | --- | --- | --- | --- | --- | --- | --- | --- | --- | --- | --- | --- |
| > 10 | < 5 | > 10 | > 10 | < 5 | > 10 | – | – | – | – | O=C(c1c(F)ccc(NS(=O)(=O)c2cc(F)ccc2F)c1F)c1c[nH]c2ncc(-c3cnc(NC4CC4)nc3)cc12 [P-1506, N-{3-[5-(2-Cyclopropylamino-pyrimidin-5-yl)-1H-pyrrolo[2,3-b]pyridine-3-carbonyl]-2,4-difluoro-phenyl}-2,5-difluoro-benzenesulfonamide] | L (low solubility if the threshold concentration is <31.3 μM) | L (low solubility if the threshold concentration is <31.3 μM) | L (low solubility if the threshold concentration is <31.3 μM) | L (low solubility if the threshold concentration is <31.3 μM) |
| > 10 | > 10 | > 10 | > 10 | > 10 | > 10 | – | – | – | – | COc1ncc(-c2cnc3[nH]cc(C(=O)c4cccc(NS(=O)(=O)c5ccccc5F)c4F)c3c2)cn1 [P-1518, 2-Fluoro-N-{2-fluoro-3-[5-(2-methoxy-pyrimidin-5-yl)-1H-pyrrolo[2,3-b]pyridine-3-carbonyl]-phenyl}-benzenesulfonamide] | L (low solubility if the threshold concentration is <31.3 μM) | L (low solubility if the threshold concentration is <31.3 μM) | L (low solubility if the threshold concentration is <31.3 μM) | L (low solubility if the threshold concentration is <31.3 μM) |

More lines, now with the values behind:

| Structure (SMILES) | IC50 (CYP2D6) [µM] | IC50 (CYP2C9) [µM] | IC50 (CYP3A4(BQ)) [µM] | IC50 (CYP2C19) [µM] | IC50 (CYP3A4(BFC)) [µM] | IC50 (CYP1A2) [µM] | IC50 [2] [µM] | IC50 (c-Raf-1) [µM] | IC50 (B-Raf) [µM] | IC50 (B-Raf V600E) [µM] | turbidity threshold (L, M, H) 1.4 [1] | turbidity threshold (L, M, H) 4.5 [1] | turbidity threshold (L, M, H) 6.8 [1] | turbidity threshold (L, M, H) 7.4 [1] |
| --- | --- | --- | --- | --- | --- | --- | --- | --- | --- | --- | --- | --- | --- | --- |
| CCCS(=O)(=O)Nc1ccc(F)c(C(=O)c2c[nH]c3ncc(-c4ccc5cccnc5c4)cc23)c1F [P-0033, Propane-1-sulfonic acid [2,4-difluoro-3-(5-quinolin-7-yl-1H-pyrrolo[2,3-b]pyridine-3-carbonyl)-phenyl]-amide] | > 10 | > 10 | > 10 | < 5 | > 10 | > 10 | – | – | – | – | L (low solubility if the threshold concentration is <31.3 μM) | L (low solubility if the threshold concentration is <31.3 μM) | L (low solubility if the threshold concentration is <31.3 μM) | L (low solubility if the threshold concentration is <31.3 μM) |
| CCCS(=O)(=O)Nc1ccc(F)c(C(=O)c2c[nH]c3ncc(-c4ccc5ncccc5c4)cc23)c1F [P-0034, Propane-1-sulfonic acid [2,4-difluoro-3-(5-quinolin-6-yl-1H-pyrrolo[2,3-b]pyridine-3-carbonyl)-phenyl]-amide] | > 10 | > 10 | > 10 | > 10 | > 10 | > 10 | – | – | – | – | – | – | – | – |
| CCCS(=O)(=O)Nc1ccc(F)c(C(=O)c2c[nH]c3ncc(-c4ccc(S(N)(=O)=O)s4)cc23)c1F [P-1202, 5-{3-[2,6-Difluoro-3-(propane-1-sulfonylamino)-benzoyl]-1H-pyrrolo[2,3-b]pyridin-5-yl}-thiophene-2-sulfonic acid amide] | – | – | – | – | – | – | < 1 | < 0.1 | < 0.1 | < 0.1 | – | – | – | – |
